According to PubChem BioAssay (NCI):
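Growth conditions: 96-well plates. Treatment: test compound, 48 hours, 5 concentrations. Analysis: linear interpolation between bracketing concentrations; unreached endpoints set to highest concentration. TGI marks complete inhibition of growth.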

How the values were obtained:
Test in all cases: growth of human tumour cells (NCI), 48 h
HOP-62 NSCLC = system: HOP-62 NSCLC
M19-MEL melanoma = system: M19-MEL melanoma
HCT-15 colon = system: HCT-15 colon
DMS 273 small cell lung = system: DMS 273 small cell lung
HCC-2998 colon = system: HCC-2998 colon
RXF 393 renal = system: RXF 393 renal
ACHN renal = system: ACHN renal
SF-295 CNS = system: SF-295 CNS
TK-10 renal = system: TK-10 renal
SK-MEL-28 melanoma = system: SK-MEL-28 melanoma
LOX IMVI melanoma = system: LOX IMVI melanoma
SK-MEL-5 melanoma = system: SK-MEL-5 melanoma
RPMI-8226 leukemia = system: RPMI-8226 leukemia
SK-MEL-2 melanoma = system: SK-MEL-2 melanoma
SF-268 CNS = system: SF-268 CNS
K-562 leukemia = system: K-562 leukemia
SR leukemia = system: SR leukemia
COLO 205 colon = system: COLO 205 colon
NCI-H226 lung = system: NCI-H226 lung
XF 498 CNS = system: XF 498 CNS
A549 NSCLC = system: A549 NSCLC
KM20L2 colon = system: KM20L2 colon
U251 CNS = system: U251 CNS
SW-620 colon = system: SW-620 colon
NCI-H522 lung = system: NCI-H522 lung
SNB-19 CNS = system: SNB-19 CNS
IGROV1 ovarian = system: IGROV1 ovarian
OVCAR-3 ovarian = system: OVCAR-3 ovarian
LXFL 529 NSCLC = system: LXFL 529 NSCLC
NCI-H23 lung = system: NCI-H23 lung
SNB-75 CNS = system: SNB-75 CNS
HCT-116 colon = system: HCT-116 colon
DLD-1 colon = system: DLD-1 colon
SNB-78 CNS = system: SNB-78 CNS
UO-31 renal = system: UO-31 renal
HOP-18 NSCLC = system: HOP-18 NSCLC
OVCAR-4 ovarian = system: OVCAR-4 ovarian
OVCAR-8 ovarian = system: OVCAR-8 ovarian
M14 melanoma = system: M14 melanoma
UACC-62 melanoma = system: UACC-62 melanoma
SF-539 CNS = system: SF-539 CNS
UACC-257 melanoma = system: UACC-257 melanoma
MALME-3M melanoma = system: MALME-3M melanoma
KM12 colon = system: KM12 colon
CAKI-1 renal = system: CAKI-1 renal
OVCAR-5 ovarian = system: OVCAR-5 ovarian
SN12C renal = system: SN12C renal
DMS 114 small cell lung = system: DMS 114 small cell lung
RXF-631 renal = system: RXF-631 renal
NCI/ADR-RES ovarian = system: NCI/ADR-RES ovarian
MCF7 breast = system: MCF7 breast
CCRF-CEM leukemia = system: CCRF-CEM leukemia
SN12K1 renal = system: SN12K1 renal
A498 renal = system: A498 renal
NCI-H460 lung = system: NCI-H460 lung
HT29 colon = system: HT29 colon
EKVX NSCLC = system: EKVX NSCLC

Question: What does the source list for `Cc1cc2cccc(Cl)c2nc1C(=O)c1ccccc1`?
Answer: TGI (HOP-62 NSCLC): > 100 µM; TGI (M19-MEL melanoma): > 100 µM; TGI (HCT-15 colon): > 100 µM; TGI (DMS 273 small cell lung): > 100 µM; TGI (HCC-2998 colon): > 100 µM; TGI (RXF 393 renal): > 100 µM; TGI (ACHN renal): > 100 µM; TGI (SF-295 CNS): 51.9 µM; TGI (TK-10 renal): > 100 µM; TGI (SK-MEL-28 melanoma): > 100 µM; TGI (LOX IMVI melanoma): > 100 µM; TGI (SK-MEL-5 melanoma): > 100 µM; TGI (RPMI-8226 leukemia): > 100 µM; TGI (SK-MEL-2 melanoma): > 100 µM; TGI (SF-268 CNS): > 100 µM; TGI (K-562 leukemia): > 100 µM; TGI (SR leukemia): > 100 µM; TGI (COLO 205 colon): > 100 µM; TGI (NCI-H226 lung): > 100 µM; TGI (XF 498 CNS): > 100 µM; TGI (A549 NSCLC): > 100 µM; TGI (KM20L2 colon): > 100 µM; TGI (U251 CNS): > 100 µM; TGI (SW-620 colon): > 100 µM; TGI (NCI-H522 lung): > 100 µM; TGI (SNB-19 CNS): > 100 µM; TGI (IGROV1 ovarian): > 100 µM; TGI (OVCAR-3 ovarian): > 100 µM; TGI (LXFL 529 NSCLC): > 100 µM; TGI (NCI-H23 lung): > 100 µM; TGI (SNB-75 CNS): 56.8 µM; TGI (HCT-116 colon): > 100 µM; TGI (DLD-1 colon): > 100 µM; TGI (SNB-78 CNS): > 100 µM; TGI (UO-31 renal): > 100 µM; TGI (HOP-18 NSCLC): > 100 µM; TGI (OVCAR-4 ovarian): > 100 µM; TGI (OVCAR-8 ovarian): > 100 µM; TGI (M14 melanoma): > 100 µM; TGI (UACC-62 melanoma): > 100 µM; TGI (SF-539 CNS): > 100 µM; TGI (UACC-257 melanoma): 66.9 µM; TGI (MALME-3M melanoma): > 100 µM; TGI (KM12 colon): > 100 µM; TGI (CAKI-1 renal): > 100 µM; TGI (OVCAR-5 ovarian): > 100 µM; TGI (SN12C renal): > 100 µM; TGI (DMS 114 small cell lung): > 100 µM; TGI (RXF-631 renal): > 100 µM

Question: Which results are given for `C=C1CC(OC)(C(O)C(=O)N[C@H]2OCO[C@H]3C2O[C@H](C[C@@H](COC)OC)C(C)(C)C3OC)O[C@H](C)[C@@H]1C` (stereo partly drawn)?
Answer: TGI (M19-MEL melanoma): < 0.00482 µM; TGI (HCT-15 colon): < 0.00482 µM; TGI (HCC-2998 colon): < 0.00482 µM; TGI (RXF 393 renal): < 0.00482 µM; TGI (NCI/ADR-RES ovarian): < 0.00482 µM; TGI (SF-295 CNS): < 0.00482 µM; TGI (MCF7 breast): < 0.00482 µM; TGI (CCRF-CEM leukemia): < 0.00482 µM; TGI (SK-MEL-28 melanoma): < 0.00482 µM; TGI (SK-MEL-5 melanoma): < 0.00482 µM; TGI (RPMI-8226 leukemia): < 0.00482 µM; TGI (SF-268 CNS): < 0.00482 µM; TGI (K-562 leukemia): < 0.00482 µM; TGI (COLO 205 colon): < 0.00482 µM; TGI (NCI-H226 lung): < 0.00482 µM; TGI (XF 498 CNS): < 0.00482 µM; TGI (KM20L2 colon): < 0.00482 µM; TGI (U251 CNS): < 0.00482 µM; TGI (SW-620 colon): 48.2 µM; TGI (SNB-19 CNS): < 0.00482 µM; TGI (IGROV1 ovarian): < 0.00482 µM; TGI (SNB-75 CNS): < 0.00482 µM; TGI (HCT-116 colon): < 0.00482 µM; TGI (DLD-1 colon): < 0.00482 µM; TGI (SN12K1 renal): < 0.00482 µM; TGI (SNB-78 CNS): < 0.00482 µM; TGI (A498 renal): < 0.00482 µM; TGI (UO-31 renal): < 0.00482 µM; TGI (HOP-18 NSCLC): < 0.00482 µM; TGI (OVCAR-4 ovarian): < 0.00482 µM; TGI (NCI-H460 lung): < 0.00482 µM; TGI (UACC-62 melanoma): < 0.00482 µM; TGI (SF-539 CNS): < 0.00482 µM; TGI (UACC-257 melanoma): < 0.00482 µM; TGI (HT29 colon): < 0.00482 µM; TGI (KM12 colon): < 0.00482 µM; TGI (EKVX NSCLC): < 0.00482 µM; TGI (SN12C renal): < 0.00482 µM; TGI (DMS 114 small cell lung): < 0.00482 µM
